Experimental data as given in patent US20220096516A1, “OLIGONUCLEOTIDE MOLECULE AND APPLICATION THEREOF IN TUMOR THERAPY” (Ractigen Therapeutics, priority 2019, published 2022).
d = 2'-deoxy (DNA); r = 2'-OH (RNA)

The substances below were run on LHPP gene (assay: High-throughput screening of saRNAs targeting LHPP promoter: LHPP mRNA by one-step RT-qPCR in Huh7 cells). Details: 10 nM saRNA, 72 hours, relative to control (Mock).
Format: cell-based, human
Method: Human liver cancer cell line Huh7 was cultured in DMEM medium (Gibco), containing 10% of calf serum (Sigma-Aldrich) and 1% of penicillin/streptomycin (Gibco). The cells were cultured at 5% CO2 and 37° C. According to the instructions provided by the manufacturer, RNAiMax (Invitrogen, Carlsbad, Calif.) was used to transfect small activating RNAs at a concentration of 10 nM (unless otherwise specified).
At the end of transfection, the media were discarded, and each well was washed with 150 μL of PBS once. After discarding the PBS, 50 μL of cell lysis buffer (Takara) was added to each well and incubated at room temperature for 5 min. 1 μL of the resulted cell lysis was taken from each well and analyzed by qPCR on an ABI 7500 fast real-time PCR system (Applied Biosystems) using a one-step TB Green™ PrimeScrip™ RT-PCR kit II (Takara, RR086A) Each transfection sample was repeatedly amplified in 3 replicate wells.
Reaction conditions were as follows: reverse transcription reaction (stage 1): 5 min at 42° C., 10 s at 95° C.; PCR reaction (stage 2): 5 s at 95° C., 20 s at 60° C., 45 cycles of amplification. HPRT1 and TBP were used as internal reference genes. PCR primers used for amplifying LHPP, HPRT1 and TBP genes are shown in Table 2, wherein LHPP was amplified using the LHPP F1/R1 primer pair.
To calculate the relative expression level (Erel) of LHPP (target gene) in an saRNA-transfected sample relative to control treatment (Mock), the Ct values of the target gene and the two internal reference genes were substituted into formula 1
Erel=2^(CtT^m^-CtT^s^)/((2^(CtR1^m^-CtR1^s^)*2^(CtR2^m^-CtR2^s^))^(1/2))
wherein CtTm was the Ct value of the target gene from the control (Mock) sample; CtTs was the Ct value of the target gene from the saRNA-treated sample; CtR1m was the Ct value of the internal reference gene 1 from the control (Mock) sample; CtR1s was the Ct value of the internal reference gene 1 from the saRNA-treated sample; CtR2m was the Ct value of the internal reference gene 2 from the control (Mock) sample; and CtR2s was the Ct value of the internal reference gene 2 from the saRNA-treated sample.
In order to obtain saRNAs capable of activating LHPP transcription, Huh7 cells were transfected with each of the aforementioned 290 saRNAs with a transfection concentration of 10 nM, and 72 hours later, according to the same method as described above, the cells were lysed and analyzed by one-step RT-qPCR to obtain the relative (compared with the control (Mock)) expression level of LHPP gene for each saRNA-treated sample. […] The observed maximum activation and maximum inhibition is 3.46 fold and 0.49 fold, respectively, saRNAs with activating activity are referred to as activating saRNAs, and the saRNAs with inhibiting activity are referred to as inhibiting saRNAs.

| Substance | Fold of changes in relative LHPP mRNA expression level [fold] | Fold of changes in relative LHPP mRNA expression level (log2) |
| --- | --- | --- |
| RAG7-138: saRNA duplex; sense UUCCUGCUCUUUGUCCGCUTT (SEQ ID NO: 53), antisense AGCGGACAAAGAGCAGGAATT (SEQ ID NO: 217) (sugars from the 5' end r19 d2, backbone not given here) | 1.36 | 0.45 |
| RAG7-892: saRNA duplex; sense UGUUGGACCAGAAGUAAAGTT (SEQ ID NO: 2), antisense CUUUACUUCUGGUCCAACATT (SEQ ID NO: 166) (sugars from the 5' end r19 d2, backbone not given here) | 2.05 | 1.03 |
| RAG7-122: saRNA duplex; sense GCUGAUCUCCUGGGAAGAATT (SEQ ID NO: 103), antisense UUCUUCCCAGGAGAUCAGCTT (SEQ ID NO: 267) (sugars from the 5' end r19 d2, backbone not given here) | 1.21 | 0.28 |
| RAG7-776: saRNA duplex; sense UAGCAUCGAGUGGUAUUUUTT (SEQ ID NO: 56), antisense AAAAUACCACUCGAUGCUATT (SEQ ID NO: 220) (sugars from the 5' end r19 d2, backbone not given here) | 1.35 | 0.44 |
| RAG7-151: saRNA duplex; sense UUGUUUUCUGCUUUUCCUGTT (SEQ ID NO: 100), antisense CAGGAAAAGCAGAAAACAATT (SEQ ID NO: 264) (sugars from the 5' end r19 d2, backbone not given here) | 1.22 | 0.28 |
| RAG7-707: saRNA duplex; sense UUCUUCUCAGCCCAGGUCCTT (SEQ ID NO: 8), antisense GGACCUGGGCUGAGAAGAATT (SEQ ID NO: 172) (sugars from the 5' end r19 d2, backbone not given here) | 1.72 | 0.78 |
| RAG7-93: saRNA duplex; sense AAGGACACCGUUUCAGGGGTT (SEQ ID NO: 144), antisense CCCCUGAAACGGUGUCCUUTT (SEQ ID NO: 308) (sugars from the 5' end r19 d2, backbone not given here) | 1.14 | 0.19 |
| RAG7-174: saRNA duplex; sense UGCCUUUGACCUUUCUUAGTT (SEQ ID NO: 49), antisense CUAAGAAAGGUCAAAGGCATT (SEQ ID NO: 213) (sugars from the 5' end r19 d2, backbone not given here) | 1.38 | 0.47 |
| RAG7-193: saRNA duplex; sense GUGCCUUCUUGUCUCAAUUTT (SEQ ID NO: 113), antisense AAUUGAGACAAGAAGGCACTT (SEQ ID NO: 277) (sugars from the 5' end r19 d2, backbone not given here) | 1.19 | 0.26 |
| RAG7-780: saRNA duplex; sense AAUGUAGCAUCGAGUGGUATT (SEQ ID NO: 142), antisense UACCACUCGAUGCUACAUUTT (SEQ ID NO: 306) (sugars from the 5' end r19 d2, backbone not given here) | 1.14 | 0.19 |
| RAG7-194: saRNA duplex; sense GGUGCCUUCUUGUCUCAAUTT (SEQ ID NO: 48), antisense AUUGAGACAAGAAGGCACCTT (SEQ ID NO: 212) (sugars from the 5' end r19 d2, backbone not given here) | 1.38 | 0.47 |
| RAG7-678: saRNA duplex; sense CAUCUAUGCAGGGCUGUUATT (SEQ ID NO: 63), antisense UAACAGCCCUGCAUAGAUGTT (SEQ ID NO: 227) (sugars from the 5' end r19 d2, backbone not given here) | 1.33 | 0.41 |
| RAG7-146: saRNA duplex; sense UUCUGCUUUUCCUGCUCUUTT (SEQ ID NO: 10), antisense AAGAGCAGGAAAAGCAGAATT (SEQ ID NO: 174) (sugars from the 5' end r19 d2, backbone not given here) | 1.69 | 0.76 |
| RAG7-738: saRNA duplex; sense CCUGGGUUUAACGCAUUGUTT (SEQ ID NO: 159), antisense ACAAUGCGUUAAACCCAGGTT (SEQ ID NO: 323) (sugars from the 5' end r19 d2, backbone not given here) | 1.11 | 0.15 |
| RAG7-96: saRNA duplex; sense GAAAAGGACACCGUUUCAGTT (SEQ ID NO: 105), antisense CUGAAACGGUGUCCUUUUCTT (SEQ ID NO: 269) (sugars from the 5' end r19 d2, backbone not given here) | 1.21 | 0.27 |
| RAG7-119: saRNA duplex; sense GAUCUCCUGGGAAGAAAGCTT (SEQ ID NO: 57), antisense GCUUUCUUCCCAGGAGAUCTT (SEQ ID NO: 221) (sugars from the 5' end r19 d2, backbone not given here) | 1.35 | 0.43 |
| RAG7-113: saRNA duplex; sense CUGGGAAGAAAGCUUCCGATT (SEQ ID NO: 120), antisense UCGGAAGCUUUCUUCCCAGTT (SEQ ID NO: 284) (sugars from the 5' end r19 d2, backbone not given here) | 1.18 | 0.24 |
| RAG7-144: saRNA duplex; sense CUGCUUUUCCUGCUCUUUGTT (SEQ ID NO: 18), antisense CAAAGAGCAGGAAAAGCAGTT (SEQ ID NO: 182) (sugars from the 5' end r19 d2, backbone not given here) | 1.56 | 0.64 |
| RAG7-879: saRNA duplex; sense GUAAAGUGUUCUCGUUUCUTT (SEQ ID NO: 40), antisense AGAAACGAGAACACUUUACTT (SEQ ID NO: 204) (sugars from the 5' end r19 d2, backbone not given here) | 1.44 | 0.53 |
| RAG7-128: saRNA duplex; sense UUGUCCGCUGAUCUCCUGGTT (SEQ ID NO: 111), antisense CCAGGAGAUCAGCGGACAATT (SEQ ID NO: 275) (sugars from the 5' end r19 d2, backbone not given here) | 1.20 | 0.26 |
| RAG7-884: saRNA duplex; sense CAGAAGUAAAGUGUUCUCGTT (SEQ ID NO: 101), antisense CGAGAACACUUUACUUCUGTT (SEQ ID NO: 265) (sugars from the 5' end r19 d2, backbone not given here) | 1.22 | 0.28 |
